From the supplement of paper PMC10307832

Columns and labels:
Assay in all cases: relative viability (nuclei count vs DMSO), 5 days (fraction); higher = more cells survive
VX-702 + Bortezomib = compound: NC(=O)c1ccc(N(C(N)=O)c2c(F)cccc2F)nc1-c1ccc(F)cc1F [VX-702] + CC(C)C[C@H](NC(=O)[C@H](Cc1ccccc1)NC(=O)c1cnccn1)B(O)O [Bortezomib] (partner 0.002 µM)
Outline: (§1)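 Lung cancer cell lines were seeded in 1536-well plates and dosed by pin tool the next day, with either a single drug or a fixed anchor-drug dose combined with five library-drug doses (not always all listed) spaced in √10 steps. Five days later, one step fixed the cells and stained their nuclei (final 0.05% Triton X-100, 1% formaldehyde, 1 ug/ml Hoechst), and nuclei were counted on 4× images. Relative viability is the nuclei count in treated wells divided by the count in vehicle wells, and each value is the median of duplicate plates.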

Dabrafenib + Alpelisib = compound: CC(C)(C)c1nc(-c2cccc(NS(=O)(=O)c3c(F)cccc3F)c2F)c(-c2ccnc(N)n2)s1 [Dabrafenib] + Cc1nc(NC(=O)N2CCC[C@H]2C(N)=O)sc1-c1ccnc(C(C)(C)C(F)(F)F)c1 [Alpelisib] (partner 2 µM)
Outline: as §1

Dabrafenib + Olaparib = compound: CC(C)(C)c1nc(-c2cccc(NS(=O)(=O)c3c(F)cccc3F)c2F)c(-c2ccnc(N)n2)s1 [Dabrafenib] + O=C(c1cc(Cc2n[nH]c(=O)c3ccccc23)ccc1F)N1CCN(C(=O)C2CC2)CC1 [Olaparib] (partner 8 µM)
Outline: as §1

VX-702 + Linsitinib = compound: NC(=O)c1ccc(N(C(N)=O)c2c(F)cccc2F)nc1-c1ccc(F)cc1F [VX-702] + C[C@]1(O)C[C@@H](c2nc(-c3ccc4ccc(-c5ccccc5)nc4c3)c3c(N)nccn32)C1 [Linsitinib] (partner 1 µM)
Outline: as §1

Cell Line | relative viability (VX-702 + Bortezomib; first compound 0.02 µM) | relative viability (VX-702 + Bortezomib; first compound 0.2 µM) | relative viability (VX-702 + Bortezomib; first compound 0.6325 µM) | relative viability (VX-702 + Bortezomib; first compound 2 µM) | relative viability (Dabrafenib + Alpelisib; first compound 0.003 µM) | relative viability (Dabrafenib + Alpelisib; first compound 0.009487 µM) | relative viability (Dabrafenib + Alpelisib; first compound 0.03 µM) | relative viability (Dabrafenib + Alpelisib; first compound 0.09487 µM) | relative viability (Dabrafenib + Alpelisib; first compound 0.3 µM) | relative viability (Dabrafenib + Olaparib; first compound 0.003 µM) | relative viability (Dabrafenib + Olaparib; first compound 0.009487 µM) | relative viability (Dabrafenib + Olaparib; first compound 0.03 µM) | relative viability (Dabrafenib + Olaparib; first compound 0.09487 µM) | relative viability (Dabrafenib + Olaparib; first compound 0.3 µM) | relative viability (VX-702 + Linsitinib; first compound 0.02 µM) | relative viability (VX-702 + Linsitinib; first compound 0.2 µM) | relative viability (VX-702 + Linsitinib; first compound 0.6325 µM) | relative viability (VX-702 + Linsitinib; first compound 2 µM)
NCI-H1299 | 1.09 | 1.03 | 1.12 | 1.09 | 1.14 | 0.982 | 1.03 | 0.87 | 0.757 | 0.932 | 0.886 | 0.902 | 0.884 | 0.794 | 1.17 | 0.999 | 1.06 | 1.09
NCI-H1355 | 1.26 | 1.22 | 1.27 | 1.26 |  | 0.935 | 0.608 |  | 0.809 |  | 0.763 | 0.769 | 0.639 | 0.718 | 0.76 | 0.802 | 0.749 | 0.866
NCI-H1437 | 0.592 | 0.631 | 0.587 | 0.595 | 1.03 | 1 | 1.04 | 1.02 | 1.06 | 0.651 | 0.62 | 0.643 | 0.592 | 0.618 | 1.1 | 1.02 | 1.09 | 1.3
NCI-H1651 | 0.958 | 0.96 | 0.95 | 1.03 | 0.994 | 1.01 | 0.859 | 0.935 | 0.904 | 0.177 | 0.186 | 0.176 | 0.147 | 0.165 | 0.876 | 1.09 | 0.967 | 1
NCI-H1666 | 0.906 | 0.672 | 0.989 | 0.606 | 0.988 |  | 0.962 | 0.973 | 1.11 | 0.783 | 0.753 | 0.776 | 0.746 | 0.799 | 0.878 | 0.86 | 0.747 | 0.855
NCI-H1703 | 0.286 | 0.37 | 0.255 | 0.289 | 0.356 | 0.309 | 0.291 | 0.379 | 0.362 | 0.602 | 0.548 | 0.326 | 0.341 | 0.395 | 0.531 | 0.717 | 0.937 | 1.26
NCI-H1734 | 0.865 | 0.844 | 0.847 | 0.738 |  | 0.775 | 0.585 | 0.573 | 0.688 |  | 0.69 | 0.504 | 0.465 | 0.557 | 0.977 | 0.769 | 0.794 | 0.763
NCI-H1755 | 0.964 | 0.911 | 1.07 | 0.979 | 0.907 | 0.937 | 0.734 | 0.904 | 0.875 | 0.845 | 0.819 | 0.788 | 0.859 | 0.886 | 1.02 | 0.967 | 1.01 | 0.725
NCI-H1792 | 0.863 | 0.978 | 0.966 | 1.21 |  | 0.698 | 0.646 | 0.598 | 0.663 |  | 0.522 | 0.25 | 0.324 | 0.417 | 0.404 | 0.484 | 0.458 | 0.5
